Experimental data: US20230095341A1, “COMPOSITIONS AND METHODS FOR TREATING NEURODEGENERATIVE, MYODEGENERATIVE, AND LYSOSOMAL STORAGE DISORDERS” (GEORGETOWN UNIVERSITY, priority 2020, published 2023)
Where “and” joins values, the source holds several entries; their conditions need not be identical. Equal entries are not always repeated. Entries after “also recorded” stand apart in the source; their conditions may differ.

Assays:
[1] = tested on: B35 rat neuroblastoma cells; test: Lactate dehydrogenase (LDH) assay, cell toxicity; type: cell-based; details: 5 hours, concentration given in the value
Protocol: (§1) Rat neuroblastoma B35 cells were grown in Dulbecco's Modified Eagle's Medium (DMEM) with 10% Fetal Bovine Serum (FBS) and 1% penicillin/streptomycin and incubated at 37° C. with 5% CO2. For the experiments, cells were transferred to 12-well plates (Cat. #150628, ThermoFisher, Waltham, Mass.) and grown to at least 70% confluence. Transient transfection was performed with 3pg P301L tau (Cat. #30145, Addgene) cDNA or 3pg human a-synuclein cDNA using Fugene HD transfection reagent (Cat. #E2311, Promega, Madison Wis.) for 24 hours. Cells were treated with ImM, I00pM, 10pM, IpM, 0.lIM, 0.01pMl, and 0.001pM dissolved in DMSO or an equivalent SuL of DMSO for 5 hours. Cell culture media was collected and cells were harvested using sodium-tris, EDTA, NP-40 (STEN) buffer and centrifuged at 10,000×g for 20 minutes at 4′C and supernatant was collected. Cell viability was determined via lactate dehydrogenase assay (Cat. #88954, Thermofisher) and MTT assay (Cat. #V13154, Thennofisher). Protein was extracted by removing culture medium and adding 0.2 ml lx STEN buffer (50 mM Tris (pH 7.6), 150 mM NaCl, 2 mM EDTA, 0.2% NP-40, 0.2% BSA, 20 mM PMSF and protease cocktail inhibitor) to cell layer and incubated on ice for 10 minutes. The bottom of the well was scraped and allowed to incubate on ice for an additional 10 minutes. Cell lysates were collected, stored at -80° C., and used for additional analyses.
(§2) Compound 1 (BK5018), Compound 2 (BK5026), Compound 3 (BK5029), Compound 4 (BD5040), Compound 6 (CL2-296). Compound 7 (CL-2-287-1) and Compound 8 (CL-2-287-2) with molecular weights of 284, 339.265, 264, 339, 269 and 247 gimol, respectively, were diluted in Dimethyl Sulfoxide (DMSO) to final concentrations of 100 pM, 10 µM, 1 pM, 0.1 pM, 0.01 pM, and 0.001 pM. Drugs were stored at −80° C.
Cellular cytotoxicity was quantitatively measured by assessment of LDH, a cytosolic enzyme that is released from damaged cells into the cellular media, after exposure to the drug 5 hours after initial dosage. The cell culture media was collected, and an aliquot was coupled with a lactate and NAD+. LDH catalyzes the reaction that converts lactate into pyruvate to produce NADH. NADH, in turn, reduces a tetrazolium salt (NT) into a red fornazan product. The amount of LDH in the media is proportional to the amount of formazan which was measured at 490 nn. The absorbance at 680 nm, to measure the background signal from the instrument, was subtracted from the absorbance at 490 nm to calculate the LDH activity. CelfCulture

[2] = tested on: alpha-synuclein in a-synuclein-transfected B35 rat neuroblastoma cells; test: Reduction of alpha-synuclein in a-synuclein-transfected B35 cells; type: cell-based, rat cells transfected with human a-synuclein cDNA; details: treatment for five hours with 100aM, lOuM and luM concentrations
Protocol: as §1
To perform transient transfection of a-synuclein into the rat neuroblastoma B35 cells FuGene@ HD Transfection Reagent (Promega Corporation, Madison, Wis.) was used. Cells were grown in 12-well dishes. A mixture containing 12 pg of cDNA, 540 pg of DMEM containing 2% FBS, and 60 pd of FuGene@ HD Transfection Reagent was incubated for 10 minutes. The cells were treated with 50 pl of the FuGeneC HD Transfection Reagent/DNA mixture for 24 hours. Cells were harvested after transfection, media was aspirated, the cells were treated with 200ul of Sodium Tris EDTA NP40 (STEN) lysis buffer then scraped off the plate and collected into a 1.5 ml centrifiuge tube.

[3] = tested on: murine Tau; test: Tau ELISA of whole brain lysates from A53T mice; type: in vivo, mouse (A53T); details: 21 days, 12 month old A53T mice
[4] = tested on: B35 rat neuroblastoma cells; test: MTT assay, cell viability; type: cell-based; details: 5 hours, concentration given in the value
Protocol: as §1, §2
To measure cell viability, cells were incubated with 500 pL of Dulbecco's Modified Eagle's Medium (DMEf) containing 50 pL of (3-[4,5-dimethylthiazol-2-yl]-2,5-diphenyl-tetrazolium bromide (ivT)) for 5 hours at 37° C. and 5% CO2. The media was aspirated so that 125 uL of media remained. The formazan salts were dissolved in 250 uL of DMSO. Absorbance was read against a blank containing 125 uL of media and MTT, and 250 uL of DMSO at 570 mn.

[5] = tested on: Tauopathy rTG4510 mice expressing human P301L tau; test: Overnight nest shredding (nesting) behavior; type: in vivo, mouse; details: 10 mg/kg, 3 weeks, vs DMSO (Kruskal-Wallis P=0.01), rTG4510 mice
Protocol: Tauopathy rTG4510 mice (i.e., a mouse model that clinically manifest a tauopathy), expressing human P301L tau driven by a CAMrII promoter, approximately 9-12 months old, were treated intraperitoneally (I.P.) for 21 consecutive days, […], or Dimethyl sulfoxide (DMSO) (n=7).
Then, blinded, independent observers reviewed images of the overnight shredding and the average quality scores were calculated.
For nest shredding, Mann-Whitney analysis was used within groups, between timepoints, and Kruskal-Wallis analysis was used between treatment groups. For open-field studies, : ordinary one-way ANOVA or Student's I test was used. […]
Blinded independent observers reviewed images of the overnight shredding and the average quality scores were calculated.

[6] = 2.5 mg/kg, 5 mg/kg and 10 mg/kg I.P.

| Compound | cell toxicity, as measured by LDH assay [1] | level of alpha-synuclein [2] | murine Tau in whole brain lysates [3, 6] | cell toxicity, as measured by MTT assay [4] | nesting mean difference scores ([5]; listed as CL287-1) | nesting mean difference scores ([5]; listed as CL-287-1) | murine Tau in whole brain lysates ([3]; 2.5 mg/kg and 10 mg/kg I.P.) |
| --- | --- | --- | --- | --- | --- | --- | --- |
| COc1ccc2nccc(Oc3ccc(C)cc3)c2c1 [BK5029, 6-Methoxy-4-(p-tolyloxy)quinoUne] | low doses of BK5029 displayed increased toxicity | none of the compounds significantly reduced the level of alpha-synuclein; also recorded: do not significantly reduce | significant reduction | low doses of BK5029 displayed increased toxicity | – | – | – |
| CC(C)(C)c1ccccc1Nc1ccccc1C(=O)O [CL-2-287-1, 2-((2-(tert-Buty)phenyl)amino)benzoic adid] | at 100 uM or less did not show increased cell toxicity | – | – | at 100lM or less did not show increased cell toxicity | significantly different | significantly improved nesting behavior | – |
| Cc1cccc(Nc2ccc3c(Nc4cccc(C)c4)nccc3c2)c1 [CL2-296, N^4,N^6—Di-m-tolylisoquinoline-1,6-diamine] | 100 uM and IOuM concentrations of CL2-296 displayed decreased levels of LDH and no other concentration of CL2-296 displayed increased cell toxicity and 100luM and 10 uM concentrations of CL2-296 displayed decreased levels of LDH | none of the compounds significantly reduced the level of alpha-synuclein; also recorded: do not significantly reduce | significant reduction | no concentration of CL2-296 displayed increased cell toxicity | – | – | – |
| COc1cccc(Nc2ccnc3cc(Cl)ccc23)c1 [BK5018, 7-Chloro-N-(3-methoxyphenyl)quinoin-4-amine] | 100aM and luM of BK5018 displayed increased levels of LDH and 100 uM and luM of BK5018 displayed increased toxicity | – | – | no concentration of BK5018 displayed increased toxicity | – | – | significant reduction |
| Cc1cccc(Nc2cc(Nc3cccc(C)c3)c3ccccc3n2)c1 [BK5026, N^2,N^4-Di-m-tolyquinoline-2,4-diamine] | lOOuM and 1OuM concentrations of BK5026 displayed increased levels of cell toxicity and 100 uM | – | – | OOuM concentrations ofBK5026 displayed increased levels of cell toxicity | – | – | – |
| COc1ccc2nccc(Nc3cccc(C)c3)c2c1 [BK5030, 6-Methoxy-N-(m-toIyl)quinolin-4-amine] | no concentration of BK5030 displayed increased toxicity | none of the compounds significantly reduced the level of alpha-synuclein; also recorded: do not significantly reduce | – | no concentration of BK5030 displayed increased toxicity | – | – | – |
